The target of assay [1] is T1, adenylate kinase (AdK) (Escherichia coli, UniProt P69441).
T1 construct: full-length, no tag mentioned; pEAK-91 vector, AdK promotor, BL21(DE3); Blue Sepharose and size exclusion
As to the kind of experiment: NMR spectra of the ADP-saturated enzyme. It is filed as binding. Conditions: 30 mM MOPS, 50 mM NaCl, pH 7.0; 25 °C.

For assay [2], the target named is T1, adenylate kinase (AdK). As to the kind of experiment: coupled spectroscopic assay, […] nm (NADH). Conditions: 0.3 mM AMP, 2 mM MgCl2, 100 mM Tris, 80 mM KCl, pH 7.5; 15, 25, 35 and 45 °C. It is filed as biochemical.
Assay [3] concerns the target T2, adenylate kinase (AdK) (Escherichia coli, UniProt P69441, P177A).
T2 construct: full-length, no tag mentioned; pEAK-91 vector, AdK promotor, BL21(DE3); Blue Sepharose and size exclusion
As to the kind of experiment: isothermal titration calorimetry, single-site fit. It is filed as binding. Conditions: 30 mM MOPS, 50 mM NaCl, pH 7.0; measured at 15, 25, 35 and 45 °C. For orientation: ITC needs no label: the signal is the heat of the interaction.

Assay [4] addresses T3, adenylate kinase (AdK) (Escherichia coli, UniProt P69441, Y171W).
T3 construct: full-length, no tag mentioned; pEAK-91 vector, AdK promotor, BL21(DE3); Blue Sepharose and size exclusion
As to the kind of experiment: isothermal titration calorimetry, single-site fit. It is filed as binding.

Assay [5] has as its target T1, adenylate kinase (AdK). As to the kind of experiment: isothermal titration calorimetry, single-site fit. Conditions: 30 mM MOPS, 50 mM NaCl, pH 7.0; measured at 15, 25, 35 and 45 °C. It is filed as binding.

One may read the Kd as the free concentration of one partner at which half of the binding sites on the other are occupied at equilibrium, for simple one-to-one binding. A lower Kd goes with tighter binding.

T1 sequence (P69441 whole entry): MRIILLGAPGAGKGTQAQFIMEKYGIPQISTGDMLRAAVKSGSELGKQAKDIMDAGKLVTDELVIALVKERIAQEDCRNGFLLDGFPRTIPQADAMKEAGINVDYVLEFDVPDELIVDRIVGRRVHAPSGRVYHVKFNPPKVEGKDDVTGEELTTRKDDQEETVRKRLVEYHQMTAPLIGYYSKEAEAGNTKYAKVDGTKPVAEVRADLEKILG
T3 sequence (P69441 whole entry Y171W): as the sequence (P69441 whole entry) above, with Y171W counted along it
T2 sequence (P69441 whole entry P177A): as the sequence (P69441 whole entry) above, with P177A counted along it

For the molecule `Nc1ncnc2c1ncn2[C@@H]1O[C@H](COP(=O)(O)OP(=O)(O)O)[C@@H](O)[C@H]1O` [ADP], the “NMR spectra of the ADP-saturated enzyme” value in assay [1] is given as “wild-type AdK in complex with saturating concentrations of the natural substrate ADP”. Take `Nc1ncnc2c1ncn2[C@@H]1O[C@H](COP(=O)(O)OP(=O)(O)OP(=O)(O)O)[C@@H](O)[C@H]1O` [ATP]: the KM result in assay [2] is recorded as “ATP affinity, KM, for the used spectroscopic assay”. As to `Nc1ncnc2c1ncn2[C@@H]1O[C@H](COP(=O)(O)OP(=O)(O)OP(=O)(O)OP(=O)(O)OP(=O)(O)OC[C@H]2O[C@@H](n3cnc4c(N)ncnc43)[C@H](O)[C@@H]2O)[C@@H](O)[C@H]1O` [Ap5a, P1,P5-di(adenosine-5′)pentaphosphate], the KD entry is “KD values for the wild type, P177A and Y171W variants” in assay [3]; “KD values for the wild type, P177A and Y171W variants” in assay [5]. Besides, the Kd in assay [4] was 250 ± 60 nM.

The record behind these values is article PMC4506515, “Structural basis for catalytically restrictive dynamics of a high-energy enzyme state” (Nature Communications, 2015).
